The structures appear in SMILES notation. Where a name gives a salt, the structure may show the parent alone.

The first series concerns HIV-1 luciferase reporter virus in U87-CD4-CCR5 cells. Description: HIV Replication (luciferase) assay. The conditions noted are these: Human immunodeficiency virus 1, U87/CD4/CCR5. It is filed as cell-based. As for the experimental part: Luciferase Replication Assay:
Plasmids encoding the full length genome of HIV-1 pNL-4-Luc with the gp120 V-3 loop replaced by the Bgl II fragment of HIV-1 ADA, YU-2 or HxB (ADA-Luc-FL, YU-2-Luc-FL and HxB-Luc-FL) are obtained from Dr. Susan Pontow (Washington University, St. Louis Mo.). Replication-competent luciferase reporter virus stocks are generated by transfection of plasmids into 293T cells using Superfect (Qiagen) or Mirus transfection reagents. Viral stocks are collected 48 hours following transfection and titered for luciferase production on U-87-CCR5 or CXCR4 cells. U87-CD4-CCR5 cells (10^4/well) are plated in 96-well cell culture plates and incubated overnight. Media is removed and replaced with 50 μl of fresh culture media (DMEM, 10% FCS) and 50 μl of compound diluted in culture medium. Cells are incubated with compound at 37° C. for 1 hour. The resultant supernatant is removed and replaced with 20 μl of media containing compound and infected with an equal volume of diluted or undiluted virus stock at 37° C. for 3-4 hours. The cells are washed once with DMEM, and 200 μl of media containing compound is added. The cultures are incubated for 3 days, the cells lysed in luciferase lysis buffer (Promega, Madison, Wis.) and transferred to Immulon plates (Dynex Technologies, Chantilly Va.). An equal volume of luciferase substrate (Promega, Madison Wis.) is added to lysates and the plates read immediately in a Wallac Luminometer. Fifty and ninety percent inhibitory concentrations are determined using GraphPad PRISM software.
Regarding `Cc1ncnc(C)c1C(=O)N1CCC(C)(N2CCC(N(c3ccccc3)c3ccc(C(F)(F)F)nc3)CC2)CC1` [Compound 69], inhibition was half-maximal at 0.11 nM (IC50).

As to `Cc1ncnc(C)c1C(=O)N1CCC(C)(N2CCC(N(Cc3ccccc3)c3ccncc3)CC2)CC1` [Compound 108], the IC50 – broadly, the concentration needed to halve the response being measured – is 0.8 nM. Still for that read-out and setting: as for `CCCN(c1cccc2cccnc12)C1CCN(C2(C)CCN(C(=O)c3c(C)ncnc3C)CC2)CC1` [Compound 110], the figure is 23 nM; as for `Cc1ncnc(C)c1C(=O)N1CCC(C)(N2CCC(N(Cc3ccccc3)C3CCCN(S(=O)(=O)C4CC4)C3)CC2)CC1` (stereo not drawn) [Compound 112], 30 nM.

The series is the same for the next values; noted with them: Human immunodeficiency virus 1, U87/CD4/CCR5, read-out: HIV Replication (luciferase) IC50.
Take `Cc1ncnc(C)c1C(=O)N1CCC(C)(N2CCC(N(Cc3ccccc3)c3cccc(C(N)=O)c3)CC2)CC1` [Compound 61]: the IC50 was determined as 0.5 nM. As for `Cc1ncnc(C)c1C(=O)N1CCC(C)(N2CCC(N(Cc3ccccc3)c3cccc(C(=O)N4CCOCC4)c3)CC2)CC1` [Compound 62], the IC50 is 4 nM.

`CCN(CC)C(=O)c1cccc(N(Cc2ccccc2)C2CCN(C3(C)CCN(C(=O)c4c(C)ncnc4C)CC3)CC2)c1` [Compound 63]: the IC50 is 6 nM. Regarding `Cc1ncnc(C)c1C(=O)N1CCC(C)(N2CCC(N(Cc3ccccc3)c3cccc(C(=O)NO)c3)CC2)CC1` [Compound 64], the IC50 is 4 nM.

`Cc1ncnc(C)c1C(=O)N1CCC(C)(N2CCC(N(Cc3ccccc3)c3cccc(C(=O)Nc4ccccc4)c3)CC2)CC1` [Compound 65]: the IC50 amounted to 2 nM. The same measure, in the same setting: next, `Cc1ncnc(C)c1C(=O)N1CCC(C)(N2CCC(N(Cc3ccccc3)c3cccc(C(=O)NCc4ccccc4)c3)CC2)CC1` [Compound 66]: 1 nM. Take `Cc1ncnc(C)c1C(=O)N1CCC(C)(N2CCC(N(Cc3ccccc3)c3cccc(C(=O)NCCO)c3)CC2)CC1` [Compound 67]: the concentration for half-maximal inhibition (IC50) is 6 nM.

With `Cc1ncnc(C)c1C(=O)N1CCC(C)(N2CCC(N(Cc3ccccc3)c3cccc(C(=O)NC4CC4)c3)CC2)CC1` [Compound 68], the half-maximal inhibitory concentration (IC50) came out at 2 nM.

Turning to `Cc1ncnc(C)c1C(=O)N1CCC(C)(N2CCC(N(c3ccccc3)c3ccc(OC(F)(F)F)cc3)CC2)CC1` [Compound 70], the IC50 was 1 nM. Regarding `Cc1ncnc(C)c1C(=O)N1CCC(C)(N2CCC(N(c3ccccc3)c3ccc(Br)cn3)CC2)CC1` [Compound 71], the IC50 was found to be 0.6 nM.

As for `Cc1ncnc(C)c1C(=O)N1CCC(C)(N2CCC(N(c3ccccc3)c3ccccc3)CC2)CC1` [Compound 72], the IC50 worked out at 0.3 nM. The same measure, in the same setting: next, `Cc1ncnc(C)c1C(=O)N1CCC(C)(N2CCC(N(c3ccccc3)c3ccc(Cl)cc3)CC2)CC1` [Compound 73]: 0.3 nM; `Cc1ncnc(C)c1C(=O)N1CCC(C)(N2CCC(N(CC3CC3)c3ccccc3)CC2)CC1` [Compound 74]: 10 nM; `Cc1ncnc(C)c1C(=O)N1CCC(C)(N2CCC(N(CCc3ccccc3)c3ccccc3)CC2)CC1` [Compound 75]: 38 nM.

Take `Cc1ncnc(C)c1C(=O)N1CCC(C)(N2CCC(N(c3ccccc3)c3ccc(C(F)(F)F)cn3)CC2)CC1` [Compound 76]: the IC50 amounted to 0.2 nM.

In the case of `Cc1ncnc(C)c1C(=O)N1CCC(C)(N2CCC(N(c3ccccc3)c3ccccn3)CC2)CC1` [Compound 77], the 50% inhibitory concentration (IC50) came to 7 nM. As to `Cc1ncnc(C)c1C(=O)N1CCC(C)(N2CCC(N(c3ccccc3)c3ccc(Cl)cn3)CC2)CC1` [Compound 78], the half-maximal inhibitory concentration (IC50) was 1 nM.

With `Cc1ncnc(C)c1C(=O)N1CCC(C)(N2CCC(N(c3ccccc3)c3ccc(F)cc3)CC2)CC1` [Compound 79], the half-inhibitory concentration (IC50) amounted to 1 nM. The same measure, in the same setting: as for `Cc1ncnc(C)c1C(=O)N1CCC(C)(N2CCC(N(Cc3cccnc3)c3ccccc3)CC2)CC1` [Compound 80], the figure is 2 nM; as for `Cc1cc(-c2cc[n+]([O-])cc2)cc(C)c1C(=O)N1CCC(C)(N2CCC(N(c3ccccc3)c3ccc(OC(F)(F)F)cc3)CC2)CC1` [Compound 81], 3 nM; as for `Cc1cc(-c2cc[n+]([O-])cc2)cc(C)c1C(=O)N1CCC(C)(N2CCC(N(c3ccccc3)c3ccc(C(F)(F)F)nc3)CC2)CC1` [Compound 82], 0.1 nM. The same measure, in the same setting: next, `Cc1cc(-c2cc[n+]([O-])cc2)cc(C)c1C(=O)N1CCC(C)(N2CCC(N(c3ccccc3)c3ccc(C(F)(F)F)cn3)CC2)CC1` [Compound 83]: 0.05 nM. On the same count and under the same terms, as for `Cc1cc(-c2cc[n+]([O-])cc2)cc(C)c1C(=O)N1CCC(C)(N2CCC(N(Cc3ccccn3)c3ccccc3)CC2)CC1` [Compound 84], the figure is 10 nM. Regarding `Cc1ncnc(C)c1C(=O)N1CCC(C)(N2CCC(N(Cc3ccncc3)c3ccccc3)CC2)CC1` [Compound 86], the IC50 was 75 nM. As for `Cc1ncnc(C)c1C(=O)N1CCC(C)(N2CCC(N(c3ccccc3)c3cccc(Br)c3)CC2)CC1` [Compound 87], the IC50 was 0.1 nM.

Take `Cc1ncnc(C)c1C(=O)N1CCC(C)(N2CCC(N(Cc3ccncc3)c3ccc(Br)cc3)CC2)CC1` [Compound 88]: the concentration for half-maximal inhibition (IC50) came out at 5 nM.

Regarding `Cc1ncnc(C)c1C(=O)N1CCC(C)(N2CCC(N(Cc3ccccn3)c3ccc(Br)cc3)CC2)CC1` [Compound 89], the IC50 is 0.8 nM. The same measure, in the same setting: next, `Cc1ncnc(C)c1C(=O)N1CCC(C)(N2CCC(N(Cc3ccccn3)c3ccccc3)CC2)CC1` [Compound 90]: 3.4 nM; `COc1ccc(N(c2ccccc2)C2CCN(C3(C)CCN(C(=O)c4c(C)ncnc4C)CC3)CC2)cc1Cl` [Compound 91]: 0.12 nM. Turning to `Cc1ncnc(C)c1C(=O)N1CCC(C)(N2CCC(N(c3ccccc3)c3cc(Cl)cc(Cl)c3)CC2)CC1` [Compound 92], the half-maximal inhibitory concentration (IC50) was found to be 4.1 nM. Turning to `Cc1ncnc(C)c1C(=O)N1CCC(C)(N2CCC(N(c3ccccc3)c3cccc(F)c3)CC2)CC1` [Compound 93], the concentration for half-maximal inhibition (IC50) was 0.21 nM. Regarding `COc1cccc(N(c2ccccc2)C2CCN(C3(C)CCN(C(=O)c4c(C)ncnc4C)CC3)CC2)c1` [Compound 94], the half-inhibitory concentration (IC50) stood at 1 nM. Same read-out and setting: as for `Cc1ncnc(C)c1C(=O)N1CCC(C)(N2CCC(N(c3ccccc3)c3ccc(Br)c(C(F)(F)F)c3)CC2)CC1` [Compound 95], the figure is 2 nM; as for `Cc1cccc(N(c2ccccc2)C2CCN(C3(C)CCN(C(=O)c4c(C)ncnc4C)CC3)CC2)c1` [Compound 96], 0.3 nM; as for `Cc1ncnc(C)c1C(=O)N1CCC(C)(N2CCC(N(Cc3cccnc3)c3ccc(Br)cc3)CC2)CC1` [Compound 97], 0.3 nM. The same measure, in the same setting: next, `Cc1ncnc(C)c1C(=O)N1CCC(C)(N2CCC(N(CC3CCCCC3)c3ccc(Br)cc3)CC2)CC1` [Compound 98]: 2 nM; `CCOc1ccc(N(c2ccccc2)C2CCN(C3(C)CCN(C(=O)c4c(C)ncnc4C)CC3)CC2)cc1` [Compound 99]: 0.3 nM; `CCc1ccc(N(c2ccccc2)C2CCN(C3(C)CCN(C(=O)c4c(C)ncnc4C)CC3)CC2)cc1` [Compound 100]: 0.1 nM. For the compound `Cc1ncnc(C)c1C(=O)N1CCC(C)(N2CCC(N(c3ccccc3)c3cc(F)cc(F)c3)CC2)CC1` [Compound 101], the 50% inhibitory concentration (IC50) came out at 0.1 nM. Still for that read-out and setting: next, `COCCN(c1ccc(Br)cc1)C1CCN(C2(C)CCN(C(=O)c3c(C)ncnc3C)CC2)CC1` [Compound 103]: 2 nM; `Cc1ncnc(C)c1C(=O)N1CCC(C)(N2CCC(N(c3ccccc3)c3ccccc3F)CC2)CC1` [Compound 104]: 3 nM. For the compound `Cc1ncnc(C)c1C(=O)N1CCC(C)(N2CCC(N(c3ccccc3)c3ccc(Oc4ccccc4)cc3)CC2)CC1` [Compound 105], the IC50 is 5 nM. On the same count and under the same terms, next, `Cc1ncnc(C)c1C(=O)N1CCC(C)(N2CCC(N(CC3CCCCC3)c3ccccc3)CC2)CC1` [Compound 106]: 1 nM.

As for `Cc1ncnc(C)c1C(=O)N1CCC(C)(N2CCC(N(c3ccccc3)c3ccc(I)cc3)CC2)CC1` [Compound 107], the IC50 was determined as 1 nM.

Tested on in a further series: not given
Experiment: not given
Conditions: not given
For the compound `Cc1ncnc(C)c1C(=O)N1CCC(C)(N2CCC(N(C)c3ccc(Cl)c4cccnc34)CC2)CC1` (as salt: HCl), the melting point (commonly the temperature, or range, at which the solid turns liquid) was 164 to 167 °C (dec.). Same read-out and setting: next, `Cc1ncnc(C)c1C(=O)N1CCC(C)(N2CCC(N(Cc3ccccc3)c3ccc(Br)cc3)CC2)CC1` (as salt: HCl): 168 to 170 °C; `Cc1ncnc(C)c1C(=O)N1CCC(C)(N2CCC(N(c3ccccc3)c3ccc(C(F)(F)F)nc3)CC2)CC1` (as salt: HCl) [Compound 69]: 189 to 193 °C. For the compound `Cc1ncnc(C)c1C(=O)N1CCC(C)(N2CCC(N(Cc3ccccc3)c3ccncc3)CC2)CC1` (as salt: HCl) [Compound 108], the melting point is 182 to 189 °C.

Regarding `CCCN(c1cccc2cccnc12)C1CCN(C2(C)CCN(C(=O)c3c(C)ncnc3C)CC2)CC1` (as salt: HCl) [Compound 110], the melting point was 181 °C (dec.). In the case of `Cc1ncnc(C)c1C(=O)N1CCC(C)(N2CCC(N(Cc3ccccc3)C3CCCN(S(=O)(=O)C4CC4)C3)CC2)CC1` (stereo not drawn) (as salt: HCl) [Compound 112], the melting point lay in the range of 190 to 195 °C.

The values are drawn from patent US7442703B2, “Piperidine derivatives useful as CCR5 antagonists” (priority 2001, dated 2008).
